Patent US20230212122A1, “MITOCHONDRIAL TARGETING COMPOUNDS FOR THE TREATMENT OF ASSOCIATED DISEASES” (The Regents of the University of Michigan, priority 2020, published 2023)

What was measured:
Type in all cases: cell-based
[1] = tested on: BxPc3 cells; assay: MTT assay, cancer cell growth inhibition (BxPC-3); conditions: Homo sapiens, BXPC-3, 168 h, 7 days of treatment
Description: Measurement of cancer cell growth inhibition of the compounds of invention Cytotoxicity of the compounds was assessed by MTT assay. In brief, MIA PaCa-2 cells or BxPc3 cells were seeded in 96-well microtitre plates at density of 200 cells/well. After overnight attachment, cells were treated with compounds at indicated concentration. After 7 days of treatment, MTT solution (3 mg/ml, 20 μl) was added to each well and cells were incubated for 3 h at 37° C. After incubation, media from each well was removed and the dark blue formazan crystals formed by live cells were dissolved in DMSO ([…] per well). The absorbance intensity was measured at 570 nm on a microplate reader (Molecular Devices, Sunnyvale, Calif., USA). The half maximal inhibitory concentration (IC50) value were calculated using 4 or 6 dots curve plotted with Cumulative Gaussian equation or Log(inhibitor) vs. response equation in GraphPad Prism.

[2] = tested on: UM16 cell line; assay: Nascent RNA sequencing (Bru-seq), gene fold change; conditions: 5 μM, 4 hours
From the text: Consistent with this observation, there are also massive metabolite pathways influenced including starch and sucrose metabolism, glycolysis and gluconeogenesis, purine metabolism, pyrimidine metabolism, N-glycan biosynthesis, etc.

[3] = tested on: UM16 cell line; assay: Proteomics, protein fold change; conditions: for Fold change: 5 μM
From the text: Several proteins participating in energy metabolism were dramatically changed.

## CCOC(=O)[C@@H]1CCCN(S(=O)(=O)c2ccc(S(=O)(=O)N(CC)CC)cc2)C1 [DX2-201, ethyl (R)-1-((4-(N,N-diethylsulfamoyl)phenyl)sulfonyl)piperidine-3-carboxylate]
[1]
  IC50: 630 ± 240 nM
[2]; non-coding RNA, downregulated
  Fold change AC008521.2: 0.1876
  Fold change AC019257.2: 0.2345
  Fold change AC091133.4: 0.2345
  Fold change AC092916.2: 0.1706
  Fold change AC106037.1: 0.2345
  Fold change AL096870.2: 0.02465
  Fold change BX679664.2: 0.1876
  Fold change C1orf50: 0.1876
  Fold change MIR545: 0.1876
  Fold change MIR5000: 0.05752
  Fold change RN7SL128P: 0.1876
  Fold change RN7SL388P: 0.2085
  Fold change RN7SL589P: 0.2165
  Fold change RN7SL833P: 0.2345
  Fold change RNU1-19P: 0.1564
  Fold change RNU1-73P: 0.09381
  Fold change RNU6-122P: 0.04314
  Fold change RNU6-398P: 0.03451
  Fold change RNU6-519P: 0.1564
  Fold change RNU6-548P: 0.05752
  Fold change SNORA73: 0.2345
  Fold change TERC: 0.04314
  Fold change Y_RNA: 0.02876
  Fold change Z99127.3: 0.1876
  Fold change ZBTB40-IT1: 0.2345
[2]; non-coding RNA, upregulated
  Fold change AC007686.1: 2.01
  Fold change AC007952.4: 2.345
  Fold change AC008687.3: 2.033
  Fold change AC034198.2: 2.345
  Fold change AC105020.4: 1.782
  Fold change AC139887.1: 2.064
  Fold change AL136982.3: 2.217
  Fold change AL161729.3: 1.993
  Fold change AL627171.1: 1.841
  Fold change AL645939.5: 1.876
  Fold change AP001527.2: 2.217
  Fold change AP001619.1: 1.62
  Fold change AP003168.2: 1.689
  Fold change DPRXP4: 3.19
  Fold change EIF5AP3: 1.876
  Fold change HMGN1P15: 2.111
  Fold change RNA5SP379: 2.814
  Fold change RNU6-182P: 20.4
  Fold change RNU6-396P: 1.876
  Fold change RNU6-531P: 2.814
  Fold change RNU6-564P: 2.814
  Fold change RNU6-1272P: 25.5
  Fold change RNY3P2: 1.876
  Fold change SNORD124: 1.876
  Fold change Y_RNA: 15.3
[2]; protein-coding, downregulated
  Fold change A2ML1: 0.582
  Fold change ARRDC4: 0.4315
  Fold change BDKRB2: 0.6044
  Fold change DGAT2: 0.5129
  Fold change DPAGT1: 0.6034
  Fold change FAM86C1: 0.6053
  Fold change FAM86HP: 0.5946
  Fold change FAM200A: 0.5595
  Fold change FOXA2: 0.6075
  Fold change G0S2: 0.4666
  Fold change GGCT: 0.6012
  Fold change HLF: 0.4727
  Fold change INTS5: 0.4515
  Fold change L3HYPDH: 0.6301
  Fold change PCED1A: 0.576
  Fold change PLLP: 0.5843
  Fold change POLR2J4: 0.4775
  Fold change RRS1: 0.5686
  Fold change SCARNA5: 0.4376
  Fold change SLC5A6: 0.6234
  Fold change SNHG21: 0.5497
  Fold change SNORA62: 0.5968
  Fold change SNORA71C: 0.6023
  Fold change TMED1: 0.6232
  Fold change TXNIP: 0.4997
[2]; protein-coding, upregulated
  Fold change ANKRD37: 2.182
  Fold change ARG2: 2.569
  Fold change ARHGAP30: 1.728
  Fold change ARRDC3: 1.707
  Fold change BNIP3L: 1.723
  Fold change CCNG2: 1.668
  Fold change CREBRF: 1.676
  Fold change ERRFI1: 1.77
  Fold change FOXO6: 1.954
  Fold change HDAC5: 1.811
  Fold change KLHL24: 2.336
  Fold change LOXL4: 1.73
  Fold change MXD4: 1.812
  Fold change MXI1: 1.785
  Fold change NDRG1: 2.874
  Fold change PDK1: 1.779
  Fold change PPP1R3C: 1.699
  Fold change PRDM1: 1.748
  Fold change RNF122: 1.915
  Fold change SEMA3B: 1.668
  Fold change SOX12: 1.903
  Fold change UPRT: 1.74
  Fold change VLDLR: 1.741
  Fold change YPEL1: 1.706
  Fold change ZNF546: 1.757
[3]
  Serine protease 23, nuclear receptor family 2 group F member 6, protein NDRG1 (proteomic results): upregulated
[3]; 24 hours, top upregulated
  Glycerol kinase fold change: 3 fold
[3]; downregulated, TCA cycle enzyme
  dihydrolilpoyl dehudrogenase fold change: 0.684
[3]; protein ABTB2, 24 hours
  Fold change: 0.778
[3]; protein ALAS1, 24 hours
  Fold change: 1.393
[3]; protein ANKH, 24 hours
  Fold change: 0.777
[3]; protein ANKRD54, 24 hours
  Fold change: 0.799
[3]; protein AP1S2, 24 hours
  Fold change: 0.792
[3]; protein AP2S1, 24 hours
  Fold change: 0.781
[3]; protein APBB1IP, 24 hours
  Fold change: 1.458
[3]; protein BTBD10, 24 hours
  Fold change: 1.651
[3]; protein CCDC88C, 24 hours
  Fold change: 0.785
[3]; protein CCNT2, 24 hours
  Fold change: 1.65
[3]; protein CDC42BPA, 24 hours
  Fold change: 1.514
[3]; protein CDCA5, 24 hours
  Fold change: 0.761
[3]; protein CMTM4, 24 hours
  Fold change: 1.678
[3]; protein CYP51A1, 24 hours
  Fold change: 1.636
[3]; protein DHTKD1, 24 hours
  Fold change: 1.384
[3]; protein DLD, 24 hours
  Fold change: 0.684
[3]; protein DOLPP1, 24 hours
  Fold change: 0.731
[3]; protein DOPEY2, 24 hours
  Fold change: 0.797
[3]; protein DTNBP1, 24 hours
  Fold change: 0.794
[3]; protein FAH, 24 hours
  Fold change: 0.785
[3]; protein FAU, 24 hours
  Fold change: 0.742
[3]; protein Hist1h1d, 24 hours
  Fold change: 0.703
[3]; protein KIAA0355, 24 hours
  Fold change: 1.48
[3]; protein MED27, 24 hours
  Fold change: 0.79
[3]; protein MROH1, 24 hours
  Fold change: 1.386
[3]; protein NAA35, 24 hours
  Fold change: 1.377
[3]; protein NDRG1, 24 hours
  Fold change: 1.55
[3]; protein NOL8, 24 hours
  Fold change: 0.771
[3]; protein NR2F6, 24 hours
  Fold change: 1.842
[3]; protein NRGN, 24 hours
  Fold change: 0.795
[3]; protein OGFOD2, 24 hours
  Fold change: 0.754
[3]; protein OSTC, 24 hours
  Fold change: 1.418
[3]; protein PDCL, 24 hours
  Fold change: 0.752
[3]; protein PLP2, 24 hours
  Fold change: 0.763
[3]; protein PRSS23, 24 hours
  Fold change: 1.844
[3]; protein RCCD1, 24 hours
  Fold change: 1.443
[3]; protein RDH13, 24 hours
  Fold change: 1.429
[3]; protein RRM2B, 24 hours
  Fold change: 1.395
[3]; protein RUSC1, 24 hours
  Fold change: 0.771
[3]; protein SCAMP2, 24 hours
  Fold change: 0.729
[3]; protein SLC25A15, 24 hours
  Fold change: 0.796
[3]; protein TADA3, 24 hours
  Fold change: 1.45
[3]; protein TCEAL1, 24 hours
  Fold change: 1.382
[3]; protein TMEM55B, 24 hours
  Fold change: 1.664
[3]; protein UQCC3, 24 hours
  Fold change: 1.635
[3]; protein ZBTB21, 24 hours
  Fold change: 0.709
[3]; protein gk, 24 hours
  Fold change: 3.009
[3]; protein krt17, 24 hours
  Fold change: 1.386
[3]; protein pop7, 24 hours
  Fold change: 0.736
[3]; protein scaf8, 24 hours
  Fold change: 1.508
